Measured values: publication PMC7377239, “Cardiovascular Effects of Polychlorinated Biphenyls and Their Major Metabolites” (Environmental Health Perspectives, 2020)
Where two headings read alike, the source gives them in different places.

Tests used:
HUVECs = assay: Tube formation (tubulogenesis) assay in HUVECs, 18 h; assay type: cell-based, human; settings: Homo sapiens, HUVEC, 18 h, HUVECs tube formation; for activity at 0.01 µM: concentration 0.01 µM; for activity at 0.1 µM: concentration 0.10 µM; for activity at 1 µM: concentration 1.00 µM; for activity at 10 µM: concentration 10.00 µM; for activity at 100 µM: concentration 100.00 µM
Summary of the method: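 HUVECs (passage 1–5) seeded on reduced-growth-factor basement membrane and exposed to compounds overnight at 37°C, 5% CO2, in 2× maintenance medium with 12.5 ng/mL VEGF; 0.5% DMSO vehicle. Calcein AM-stained tube networks imaged and analysed; vehicle-normalized readouts fit to four-parameter logistic, POD set at one SD of vehicle means.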

[1] = system: iCell endothelial cells (human iPSC-derived ECs); assay: High-content imaging cytotoxicity in iCell endothelial cells, 24 h; assay type: cell-based; settings: Homo sapiens, Endothelial cell, iPSC-EC; for viability at 0.1 µM / activity at 0.1 µM: 0.10 µM; for minimal effective concentration: 100.00 = highest concentration tested
Summary of the method: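 Human iPSC-derived endothelial cells (passages 1–5) were grown to a fibronectin-coated monolayer, then exposed 24 h at 37 °C with 0.5% DMSO vehicle. Staining was Hoechst 33342, MitoTracker Orange and calcein AM, read by high-content imaging. Point of departure came from 4-parameter logistic fits, with a 1-SD vehicle cutoff and 100 µM as the top concentration.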

[2] = 0.00 µM = 100.00, read-out: huvec.mtl.18hr
[3] = 0.00 µM = 100.00, read-out: huvec.tlps.18hr
[4] = 0.00 µM = 100.00, read-out: huvec.tta.18hr
[5] = 0.00 µM = 100.00, read-out: huvec.ttl.18hr
[6] = 0.00 µM = 100.00, read-out: endo.cyto.24hr
[7] = 0.00 µM = 100.00, read-out: endo.mito.24hr
[8] = 0.00 µM = 100.00, read-out: endo.mitoint.24hr
[9] = 0.00 µM = 100.00, read-out: endo.nma.24hr
[10] = 0.00 µM = 100.00, read-out: endo.tc.24hrs

Clc1ccc(Cl)c(-c2c(Cl)ccc(Cl)c2Cl)c1 [PCB95]
minimal effective concentration (HUVECs; MAX 100.00, read-out: huvec.mtl.18hr POD): 8.29 µM
minimal effective concentration (HUVECs; MAX 100.00, read-out: huvec.tlps.18hr POD): 100 µM
minimal effective concentration (HUVECs; MAX 100.00, read-out: huvec.tta.18hr POD): 100 µM
minimal effective concentration (HUVECs; MAX 100.00, read-out: huvec.ttl.18hr POD): 100 µM
activity at 0.01 µM (HUVECs; [2]): 96.9%
activity at 0.01 µM (HUVECs; [3]): 80.5%
activity at 0.01 µM (HUVECs; [4]): 75.1%
activity at 0.01 µM (HUVECs; [5]): 63%
activity at 0.1 µM (HUVECs; [2]): 82.7%
activity at 0.1 µM (HUVECs; [3]): 88.7%
activity at 0.1 µM (HUVECs; [4]): 71.1%
activity at 0.1 µM (HUVECs; [5]): 63.9%
activity at 1 µM (HUVECs; [2]): 104%
activity at 1 µM (HUVECs; [3]): 86.3%
activity at 1 µM (HUVECs; [4]): 78.7%
activity at 1 µM (HUVECs; [5]): 68.7%
activity at 10 µM (HUVECs; [2]): 87.4%
activity at 10 µM (HUVECs; [3]): 88.9%
activity at 10 µM (HUVECs; [4]): 84%
activity at 10 µM (HUVECs; [5]): 79.8%
activity at 100 µM (HUVECs; [2]): 72.8%
activity at 100 µM (HUVECs; [3]): 64.1%
activity at 100 µM (HUVECs; [4]): 68.8%
activity at 100 µM (HUVECs; [5]): 61.4%
viability at 0.01 µM [1, 6]: 96.8%
activity at 0.01 µM [1, 7]: 96.7%
activity at 0.01 µM [1, 8]: 93.2%
activity at 0.01 µM [1, 9]: 103%
viability at 0.01 µM [1, 10]: 96.8%
viability at 0.1 µM [1, 6]: 102%
activity at 0.1 µM [1, 7]: 102%
activity at 0.1 µM [1, 8]: 87.2%
activity at 0.1 µM [1, 9]: 104%
viability at 0.1 µM [1, 10]: 102%
viability at 1 µM [1, 6]: 105%
activity at 1 µM [1, 7]: 106%
activity at 1 µM [1, 8]: 84.4%
activity at 1 µM [1, 9]: 98.6%
viability at 1 µM [1, 10]: 105%
viability at 10 µM [1, 6]: 104%
activity at 10 µM [1, 7]: 104%
activity at 10 µM [1, 8]: 93.9%
activity at 10 µM [1, 9]: 100%
viability at 10 µM [1, 10]: 104%
viability at 100 µM [1, 6]: 102%
activity at 100 µM [1, 7]: 103%
activity at 100 µM [1, 8]: 93.6%
activity at 100 µM [1, 9]: 97.4%
viability at 100 µM [1, 10]: 102%
minimal effective concentration ([1]; read-out: endo.cyto.24hr POD): 100 µM
minimal effective concentration ([1]; read-out: endo.mito.24hr POD): 100 µM
minimal effective concentration ([1]; read-out: endo.mitoint.24hr POD): 100 µM
minimal effective concentration ([1]; read-out: endo.nma.24hr POD): 100 µM
minimal effective concentration ([1]; read-out: endo.tc.24hrs POD): 100 µM
